Laboratory results reported in patent publication US20260265259A1, “SUBSTITUTED 6-IMIDAZOPYRIDAZINE IL-17A MODULATORS AND USES THEREOF” (DICE ALPHA, INC., priority 2023, published 2026).
Like-named read-outs stand apart in the source and are kept apart here.

Tested on: IL-17A/A
Test: IL-17A/A HEK-Blue cell assay
Format: cell-based
Settings: IL-17A/A inhibition, HEK-Blue IL-17A reporter cell line, IL17A/A 5 ng/mL
Protocol: The HEK-Blue IL-17A reporter cell line (Fisher #NC1408637) was used for cell-based IL-17A/A inhibition assays. Cells were grown and prepared for assays according to the manufacturer's instructions. This cell line consists of HEK 293 cells that were designed to expressed IL-17RA, IL-17RC, and the Act1 adapter molecule, the combination of which, when stimulated by IL-17A/A or IL17A/F activates a NFκB promoter and drives expression of the recombinant Secreted Alkaline Phosphatase (SEAP) gene. Media from the cells is then added to a development reagent (Quanti-Blue Substrate, Fisher #NC9711613), and read at A630.
Compounds were dispensed in DMSO to an empty clear 384-well tissue culture plate in a titration ranging from 10 μM to 27 pM, with DMSO added to every well to a final concentration of 0.1%. Cells were then added to the plate (45 μL/well at a concentration of 280,000 cells/mL). IL17A/A (Genscript #Z03228) or IL17A/F (R&D Systems) was added to the plate to a final concentration of 5 ng/mL and a final well volume of 50 μL. The cells, compound, and IL-17A/A or IL17A/F were then incubated for 20 hours before media was removed for SEAP analysis. The resulting inhibition curve was then analyzed using Dotmatics' integrated 4-parameter fit screening protocol to generate IC50 values.

[1] = HEK-Blue, 20 h, SEAP read at A630, read-out: AA IC50
[2] = 20 hours, SEAP read at A630, read-out: AA IC50

SMILES | IC50 [1] | IC50 [2]
CCn1nccc1C(=O)N[C@H](c1cn2nc(C[C@H]3C[C@@H](C(F)(F)F)CNC3=O)c(C3CCCOC3)cc2n1)[C@H]1CCCC(F)(F)C1 (some centres unmarked) [Compound 63] | < 100 nM | 
CCn1nccc1C(=O)N[C@H](c1cn2nc(C[C@H]3C[C@@H](C(F)(F)F)CNC3=O)c(-c3cncnc3)cc2n1)C1CCC(F)(F)CC1 [Compound 4] | 100 to 1000 nM | 
CCn1nccc1C(=O)N[C@H](c1cn2nc(C[C@H]3C[C@@H](C(F)(F)F)CNC3=O)c(C3CCCCC3)cc2n1)C1CCC(F)(F)CC1 [Compound 76] | < 100 nM | 
CCn1nccc1C(=O)N[C@H](c1cn2nc(C[C@H]3C[C@@H](C(F)(F)F)CNC3=O)c(C3CCCO3)cc2n1)C1CCC(F)(F)CC1 (some centres unmarked) [Compound 83] | < 100 nM | 
CCn1nccc1C(=O)N[C@H](c1cn2nc(C[C@H]3C[C@@H](C(F)(F)F)CNC3=O)c(C3CCOC3)cc2n1)[C@@H]1CCCC(F)(F)C1 (some centres unmarked) [Compound 72] |  | < 100 nM
CCn1nccc1C(=O)N[C@H](c1cn2nc(C[C@H]3C[C@@H](C(F)(F)F)CNC3=O)c(C3COCCO3)cc2n1)C1CCC(F)(F)CC1 (some centres unmarked) [Compound 95] |  | < 100 nM
CCn1nccc1C(=O)N[C@H](c1cn2nc(C[C@@H]3C[C@@H](C(F)(F)F)CNC3=O)c(-c3cncnc3)cc2n1)C1CCC(F)(F)CC1 [Compound 9] | > 1000 nM | 
CC(C)n1nccc1C(=O)N[C@H](c1cn2nc(C[C@H]3C[C@@H](C(F)(F)F)CNC3=O)c(N3CCOCC3)cc2n1)[C@H]1CCCC(F)(F)C1 [Compound 27] | < 100 nM | 
CCn1nccc1C(=O)N[C@H](c1cn2nc(C[C@H]3C[C@@H](C(F)(F)F)CNC3=O)c(C3CCOC3)cc2n1)[C@H]1CCCC(F)(F)C1 (some centres unmarked) [Compound 67] | < 100 nM | 
CCn1nccc1C(=O)N[C@H](c1cn2nc(C[C@@H]3C[C@@H](C(F)(F)F)CNC3=O)c(N3CCC3)cc2n1)C1CCC(F)(F)CC1 [Compound 24] | > 1000 nM | 
CCn1nccc1C(=O)N[C@H](c1cn2nc(C[C@H]3C[C@@H](C(F)(F)F)CNC3=O)c(C3CCOCC3)cc2n1)[C@@H]1CCCC(F)(F)C1 [Compound 56] | < 100 nM | 
CCn1nccc1C(=O)N[C@H](c1cn2nc(C[C@H]3C[C@@H](C)CNC3=O)c(C3CCOCC3)cc2n1)C1CCC(F)(F)CC1 [Compound 100, N—((1S)-(4,4-difluorocyclohexyl)(6-(((5R)-5-methyl-2-oxopiperidin-3-yl)methyl)-7-(tetrahydro-2H-pyran-4-yl)imidazo[1,2-b]pyridazin-2-yl)methyl)-1-ethyl-1H-pyrazole-5-carboxamide] | 100 to 1000 nM | 
CCn1nccc1C(=O)N[C@H](c1cn2nc(C[C@H]3C[C@@H](C(F)(F)F)CNC3=O)c(C3CCOC(C)(C)C3)cc2n1)C1CCC(F)(F)CC1 (some centres unmarked) [Compound 87] | < 100 nM | 
CCn1nccc1C(=O)N[C@H](c1cn2nc(C[C@H]3C[C@@H](C(F)(F)F)CNC3=O)c(N3CC4(CCOCC4)C3)cc2n1)C1CCC(F)(F)CC1 [Compound 48] | < 100 nM | 
O=C(N[C@H](c1cn2nc(C[C@H]3C[C@@H](C(F)(F)F)CNC3=O)c(C3CCOC3)cc2n1)[C@H]1CCCC(F)(F)C1)c1nonc1C1CC1 (some centres unmarked) [Compound 73] |  | < 100 nM
CCn1nccc1C(=O)N[C@H](c1cn2nc(C[C@H]3C[C@@H](C(F)(F)F)CNC3=O)c(-c3cccnc3)cc2n1)C1CCC(F)(F)CC1 [Compound 3] | 100 to 1000 nM | 
CCn1nccc1C(=O)N[C@H](c1cn2nc(C[C@H]3C[C@@H](C(F)(F)F)CNC3=O)c(C3CCCOC3)cc2n1)[C@H]1CCCC(F)(F)C1 (some centres unmarked) [Compound 65] |  | < 100 nM
O=C(N[C@H](c1cn2nc(C[C@H]3C[C@@H](C(F)(F)F)CNC3=O)c(C3CCOC3)cc2n1)C1CCC(F)(F)CC1)c1nonc1C1CC1 (single isomer, unassigned) [Compound 45] | < 100 nM | 
CCn1nccc1C(=O)N[C@H](c1cn2nc(C[C@@H]3C[C@@H](C(F)(F)F)CNC3=O)c(N3CCOCC3C)cc2n1)C1CCC(F)(F)CC1 (some centres unmarked) [Compound 96] |  | > 1000 nM
CCn1nccc1C(=O)N[C@H](c1cn2nc(C[C@H]3C[C@@H](C(F)(F)F)CNC3=O)c(C3CCOCC3)cc2n1)C1CCC(C)CC1 (some centres unmarked) [Compound 86] | < 100 nM | 
